# Test results as given in paper PMC6509188, “Enterococcus faecalis Encodes an Atypical Auxiliary Acyl Carrier Protein Required for Efficient Regulation of Fatty Acid Synthesis by Exogenous Fatty Acids” (mBio, 2019).
# Tests used:
# Type in all cases: biochemical
# AcpS = molecular target: T1, AcpS (Enterococcus faecalis, UniProt Q820V0); test: conversion of apo-ACP to holo-ACP, PAGE; conditions: acceptor apo-AcpA or apo-AcpB of E. faecalis; Mg2+, Tris-HCl pH 8.0, 37 C
# T1 construct: N-terminal hexahistidine tag, expressed from pZL311, nickel-chelate purified
# T1 sequence (Q820V0 1-117): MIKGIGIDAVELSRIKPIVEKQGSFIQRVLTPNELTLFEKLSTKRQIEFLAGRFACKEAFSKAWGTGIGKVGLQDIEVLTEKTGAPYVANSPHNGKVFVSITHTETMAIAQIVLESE
# PlsX = molecular target: T2, PlsX (Enterococcus faecalis, UniProt Q82ZE8); test: acyl transfer to holo-ACP, urea-PAGE; conditions: acyl acceptor holo-AcpB of E. faecalis; 0.05 uM PlsX, 0.75 mM Mg2+, 0.5 mM DTT, 0.1 M HEPES pH 7.0, 37 C
# T2 construct: N-terminal hexahistidine tag, expressed from pZL391 in E. coli, purified
# T2 sequence (Q82ZE8 1-333): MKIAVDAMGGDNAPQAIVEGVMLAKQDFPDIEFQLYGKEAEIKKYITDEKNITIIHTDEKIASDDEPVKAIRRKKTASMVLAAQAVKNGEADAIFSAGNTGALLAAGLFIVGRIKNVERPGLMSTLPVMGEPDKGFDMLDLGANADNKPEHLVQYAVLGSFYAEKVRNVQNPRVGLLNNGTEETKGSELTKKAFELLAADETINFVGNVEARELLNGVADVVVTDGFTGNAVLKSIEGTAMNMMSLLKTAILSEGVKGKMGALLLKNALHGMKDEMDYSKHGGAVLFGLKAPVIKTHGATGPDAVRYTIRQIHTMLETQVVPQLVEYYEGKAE
# AasS = molecular target: T3, AasS (Vibrio harveyi, UniProt Q00IB3); test: acyl-ACP synthesis, urea-PAGE; conditions: acceptor holo-AcpA or holo-AcpB of E. faecalis; 2 mM ATP, 200 uM acid, 37 C
# T3 construct: N-terminal hexahistidine tag, expressed from pYFJ84, nickel-chelate purified; used to prepare acyl-ACPs
# T3 sequence (Q00IB3 entry or part of it): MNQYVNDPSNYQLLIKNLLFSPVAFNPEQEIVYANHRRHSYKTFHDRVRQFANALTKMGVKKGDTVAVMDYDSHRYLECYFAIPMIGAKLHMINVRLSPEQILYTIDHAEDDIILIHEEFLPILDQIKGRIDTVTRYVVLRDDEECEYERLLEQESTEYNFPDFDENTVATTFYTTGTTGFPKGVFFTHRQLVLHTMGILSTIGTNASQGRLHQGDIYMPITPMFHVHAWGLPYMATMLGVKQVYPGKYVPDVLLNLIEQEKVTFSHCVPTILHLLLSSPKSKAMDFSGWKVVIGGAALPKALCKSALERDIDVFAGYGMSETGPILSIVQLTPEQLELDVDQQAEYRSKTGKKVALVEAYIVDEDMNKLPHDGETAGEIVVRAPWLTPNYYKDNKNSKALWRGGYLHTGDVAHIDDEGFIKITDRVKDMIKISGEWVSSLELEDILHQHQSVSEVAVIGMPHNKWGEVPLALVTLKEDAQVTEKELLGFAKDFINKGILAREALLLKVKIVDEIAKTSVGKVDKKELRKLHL
smiles,measurement,setting,value
CC(C)(COP(=O)(O)OP(=O)(O)OC[C@H]1O[C@@H](n2cnc3c(N)ncnc32)[C@H](O)[C@@H]1OP(=O)(O)O)[C@@H](O)C(=O)NCCC(=O)NCCS [CoA],"conversion of apo-ACP to holo-ACP, PAGE",AcpS,treated with E. faecalis AcpS and coenzyme A (CoA)
CCCCCCCCCCCCCCCCCC(=O)OP(=O)(O)O [stearoyl-phosphate],"acyl transfer to holo-ACP, urea-PAGE",PlsX,AcpB was fully converted into acyl-AcpB when stearoyl-phosphate (C18:0-PO4) or oleyl-phosphate (C18:1-PO4)
CCCCCCC/C=C/C(=O)O [trans-2-decenoic acid],"acyl-ACP synthesis, urea-PAGE",AasS,"Incubation of the holo proteins with AasS, ATP, and trans-2-decenoic acid resulted in trans-2-decenoyl-AcpA"
